Results published in ChEMBL document CHEMBL1155249, “Molecular modifications on carboxylic acid derivatives as potent histone deacetylase inhibitors: Activity and docking studies” (Bioorg Med Chem, 2009).

Biological target: Histone deacetylase
Assay: Inhibition of HDAC in human Hela cells nuclear extracts by fluorimetric assay
Format: cell-based

Structure (SMILES) | Ki | IC50
O=C(O)/C=C/c1ccccc1 [CINNAMIC ACID] | 0.00821 µM | 
CCCC(=O)[O-].[Na+] [SODIUM BUTYRATE] | 365 µM | 800 µM
O=C(O)/C=C/c1ccc(O)c(O)c1 [CAFFEIC ACID] | 10.84 µM | 2540 µM
O=C([O-])CCCc1ccccc1.[Na+] [SODIUM PHENYLBUTYRATE] | 6.34 µM | 
O=C(/C=C/c1ccc(O)c(O)c1)O[C@@H]1C[C@](O)(C(=O)O)C[C@@H](O)[C@H]1O [CHLOROGENIC ACID] | 0.135 µM | 375 µM
NCCCC(=O)O [GAMMA-AMINOBUTYRIC ACID] | 8.19 µM | 
CCCC(=O)O [BUTYRIC ACID] | 136 µM | 
